Reference: patent US20050054587A1, “Novel therapeutic indication of azithromycin for treatment of non-infective inflamatory diseases” (priority 2001, published 2005)

Assays:
Format in all cases: in vivo, human
[1] = system: glutathione reductase; test: Glutathione reductase activity in PMN lysates (BIOXYTECH GR-340); conditions: healthy volunteers, azithromycin 3×500 mg, baseline 9.63 ± 1.16
Method: (§1) A trial on healthy volunteers was conducted and the influence of azithromycin given in a dosage of 3×500 mg on selected inflammation-relevant parameters was followed up.
(§2) Each subject received two standard 250 mg capsules of azithromycin (Sumamed®, PLIVA Zagreb) on three consecutive days. Immediately before the treatment and 2 h and 30 min, 24 h and 28 days after the third and last dose of azithromycin blood was collected from the cubital vein into EDTA-containing tubes. Aliquots were taken for cell counting, smear preparation, polymorphonuclear cell and serum isolation.
Glutathione reductase is an ubiquitous enzyme that catalyses the reduction of oxidised glutathione (GSSG) to glutathione (GSH). Glutathione reductase is essential for the glutathione redox cycle that maintains adequate levels of reduced cellular GSH. GSH serves as an antioxidant, reacting with free radicals and organic peroxides, in amino acid transport, and as a substrate for the GSHPx and glutathione S-transferases in the detoxification of organic peroxides and metabolism of xenobiotics. Glutathione reductase was determined using the BIOXYTECH® GR-340™ colorimetric assay for glutathione reductase (OXIS International, Inc.). Briefly, oxidation of NADPH to NADP^+ is catalysed by a limiting concentration of glutathione reductase.

[2] = system: N-acetyl-β-D-glucosaminidase (NAGA); test: NAGA activity in serum, fluorimetric; conditions: healthy volunteers; for NAGA (serum): azithromycin 3×500 mg, baseline 9.16 ± 1.6
Method: as §1, §2
(§3) Glycosidases are enzymes that catalyse hydrolysis of glycosidic bonds of oligosacharides and other glycosides. They are specific to the glycosidic part of substrate molecule. N-acetyl-β-D-glucosaminidase (NAGA) and β-glucuronidase are such enzymes. They are lysosomal enzymes, both located in azurophilic (primary; peroxidase-positive) granules of neutrophils. Since degranulation of neutrophils is present during inflammation, many authors choose these enzymes as markers of degranulation and for estimation of neutrophil reactivity. The catalytic concentration of both enzymes in serum and in neutrophil lysates was determined using the fluorimetric method described by O'Brien et al. (New Engl. J. Med. (1970) 283: 15-20) for NAGA and Glaser & Sly (J. Lab. Clin. Med. (1973) 82: 969) for β-glucuronidase.

[3] = system: azurophilic granules of neutrophils; test: Release of glycosidases from azurophilic granules (NAGA and β-glucuronidase); conditions: healthy volunteers, 3×500 mg; within 24 hours after the last dose
Method: as §1, §2
as §3, with “β-glucuronidase. […]” for “β-glucuronidase.”

[4] = system: granulocytes; test: Apoptotic cells by morphology of blood smears; conditions: healthy volunteers, azithromycin 3×500 mg, baseline 0.333 ± 0.655
Method: as §1, §2
Three-day administration of azithromycin exerted a delayed pro-apoptotic effect on granulocytes, as indicated by morphology of blood smears. The number of apoptotic cells counted increased continuously after the three day dosing with azithromycin, achieving statistical significance 28 days after the last dose.

[5] = system: IL-6; test: Serum IL-6 concentration, ELISA; conditions: healthy volunteers, azithromycin 3×500 mg, baseline 3.4 ± 1.05
Method: as §1, §2
(§4) Cytokine and chemokine concentrations were determined using ELISA kits. […] Rapid and pronounced decreases in the plasma concentrations of the neutrophil-stimulating chemokine, IL-8, and GR0-α were observed 2 h and 30 min and 24 h after the last dose of azithromycin (Table 1. The concentration of IL-8 returned essentially to baseline after 28 days, while that of GRO-[…] was decreased at this time.

[6] = system: β-glucuronidase; test: β-glucuronidase activity in serum, fluorimetric; conditions: healthy volunteers; for β-glucuronidase (serum): azithromycin 3×500 mg, baseline 2.88 ± 0.7
Method: as §1, §2, §3

[7] = system: myeloperoxidase (MPO); test: Myeloperoxidase density on digital image of blood smear, healthy volunteer trial; conditions: healthy volunteers, azithromycin 3×500 mg, baseline 105 ± 13
Method: as §1, §2
(§5) The activity of MPO was assessed from the intensity of staining of neutrophils in blood smears and in cell lysates by ELISA. After fixation in ethanol-formaldehyde, smears were incubated in a substrate solution containing hydrogen peroxide and benzidine (SIGMA). After incubation, smears were counterstained with Giemsa solution. MPO value positivity_of 100 granulocytes was evaluated and scored from 0 to 4+ on the basis of the intensity of the precipitated dye in cytoplasm. Therefore, the value of the score could be from 0 to 400. Normal values of score range (290-390) were taken from this study before azithromycin administration. MPO activity was also evaluated on the digital image of smear taken with a digital camera under the high magnification (×1000) of light microscope. MPO activities in blood smear neutrophils decreased from 2 h and 30 min to 24 h after the last azithromycin dose and returned to baseline after 28 days (Table 1). The change in neutrophil enzyme protein followed the same pattern as that in intracellular enzyme activity, decreasing from 2 h and 30 min to 24 h after the last dose of azithromycin and returning to baseline after 28 days. Both methodological approaches of MPO determination confirmed each other. Degranulation presented with lower MPO neutrophil density determined_with cytochemistry was associated with lower MPO ELISA concentrations in neutrophil lysates.

[8] = system: myeloperoxidase (MPO); test: MPO enzyme protein by ELISA in neutrophil lysates; conditions: healthy volunteers, azithromycin 3×500 mg, baseline 54.22 ± 12.61
Method: as §1, §2
as §5, with “Both methodological approaches of MPO determination confirmed each other.” left out
Proteins in PMN samples were determined according to the method of Bradford (Anal. Biochem. (1976) 72: 248-254) using bovine serum albumin as a standard.

[9] = system: IL-1; test: Serum IL-1 concentration, ELISA; conditions: healthy volunteers, azithromycin 3×500 mg, baseline 0.291 ± 0.11
Method: as §1, §2, §4

[10] = system: GRO-α; test: Serum GRO-α concentration, ELISA; conditions: healthy volunteers, azithromycin 3×500 mg, baseline 124.1 ± 33.02
Method: as §1, §2, §4

Question: What does the source list for CC[C@H]1OC(=O)[C@H](C)[C@@H](O[C@H]2C[C@@](C)(OC)[C@@H](O)[C@H](C)O2)[C@H](C)[C@@H](O[C@@H]2O[C@H](C)C[C@H](N(C)C)[C@H]2O)[C@](C)(O)C[C@@H](C)CN(C)[C@H](C)[C@@H](O)[C@]1(C)O [azithromycin, 9-deoxo-9-dihydro-9a-methyl-9a-aza-9a-homoerythromycin A]?
Answer: GLUTATHION REDUCTASE (PMN) ([1]; 2 h and 30 min after last dose): 7.39 ± 1.23 mU/10^6PMN; GLUTATHION REDUCTASE (PMN) ([1]; 24 hours after last dose): 7.91 ± 0.87 mU/10^6PMN; GLUTATHION REDUCTASE (PMN) ([1]; 28 days after last dose): 11.27 ± 2.24 mU/10^6PMN; increase of activity of NAGA in serum vs initial values ([2]; 3×500 mg, 2 h and 30 min after the last dose): about 30%; activity of NAGA in serum higher than the initial values ([2]; 3×500 mg, 24 hours after the last dose): approximately 50%; serum NAGA values higher than initial values ([2]; 3×500 mg, 28 days after the last dose): 70%; NAGA (serum) ([2]; 2 h and 30 min after last dose): 11.52 ± 2.2 µmol/L/min; NAGA (serum) ([2]; 24 hours after last dose): 13.7 ± 1.5 µmol/L/min; NAGA (serum) ([2]; 28 days after last dose): 14.87 ± 1.9 µmol/L/min; release of enzymes from azurophilic granules [3]: 40-50%; APOPTOSIS (WBC) ([4]; 2 h and 30 min after last dose): 0.833 ± 1.029 apoptopic cells/1000 WBC; APOPTOSIS (WBC) ([4]; 24 hours after last dose): 1.417 ± 1.240 apoptopic cells/1000 WBC; APOPTOSIS (WBC) ([4]; 28 days after last dose): 2.583 ± 2.02 apoptopic cells/1000 WBC; IL-6 (serum) ([5]; 2 h and 30 min after last dose): 2.7 ± 1.49 pg/mL; IL-6 (serum) ([5]; 24 hours after last dose): 2.5 ± 1.48 pg/mL; IL-6 (serum) ([5]; 28 days after last dose): 1.15 ± 0.61 pg/mL; change of activity of β-glucuronidase in serum ([6]; 3×500 mg, during the first 24 hours after the last dose): did not show any changes; β-glucuronidase (serum) ([6]; 2 h and 30 min after last dose): 3.01 ± 0.6 µmol/L/min; β-glucuronidase (serum) ([6]; 24 hours after last dose): 2.95 ± 0.5 µmol/L/min; β-glucuronidase (serum) ([6]; 28 days after last dose): 3.93 ± 1.2 µmol/L/min; myeloperoxidase (density) ([7]; 2 h and 30 min after last dose): 130 ± 16; myeloperoxidase (density) ([7]; 24 hours after last dose): 131 ± 17; myeloperoxidase (density) ([7]; 28 days after last dose): 115 ± 19; myeloperoxidase (PMN) ([8]; 2 h and 30 min after last dose): 70.85 ± 19.91 μg/mg protein; myeloperoxidase (PMN) ([8]; 24 hours after last dose): 26.74 ± 2.51 μg/mg protein; myeloperoxidase (PMN) ([8]; 28 days after last dose): 70.01 ± 17.62 μg/mg protein; IL-1 (serum) ([9]; 2 h and 30 min after last dose): 0.533 ± 0.15 pg/mL; IL-1 (serum) ([9]; 24 hours after last dose): 1.07 ± 0.19 pg/mL; IL-1 (serum) ([9]; 28 days after last dose): 0.29 ± 0.20 pg/mL; GRO-α (serum) ([10]; 2 h and 30 min after last dose): 109.6 ± 30.35 pg/mL; GRO-α (serum) ([10]; 24 hours after last dose): 107.9 ± 27.83 pg/mL; GRO-α (serum) ([10]; 28 days after last dose): 90.4 ± 22.32 pg/mL
